This is an account of results in patent US12501900B2, “Heterocyclyl pyridazine as fungicidal compounds” (Bayer Aktiengesellschaft, priority 2018, dated 2025).

This data set is described as follows: Measurement of LogP values by HPLC on reversed phase columns (EEC directive 79/831 Annex V.A8), methods [a], [b], [c]. The data set is classed as physicochemical. Here is the method: Measurement of Log P values as provided herein was performed according to EEC directive 79/831 Annex V.A8 by HPLC (High Performance Liquid Chromatography) on reversed phase columns with the following methods: • ^[a]
If more than one Log P value is available within the same method, all the values are given and separated by “+”.
Lambda-max-values were determined using UV-spectra from 200 nm to 400 nm and the peak values of the chromatographic signals

[1] abbreviates: method [a]: LC-UV, acidic range, 0.1% formic acid in water and acetonitrile, Table 7, compounds of formula (3).
Setting [2] is: method [a], Table 9, compounds of formula (4).
Setting [3] is: method [a]: LC-UV, acidic range, 0.1% formic acid in water and acetonitrile, Table 11, compounds of formula (6).
Where [4] appears, read: method [a]: LC-UV, acidic range, 0.1% formic acid in water and acetonitrile, Table 3, compounds of formula (1).
Where [5] appears, read: method [a]: LC-UV, acidic range, 0.1% formic acid in water and acetonitrile, Table 15, compounds of formula (9).
Where [6] appears, read: method [a]: LC-UV, acidic range, 0.1% formic acid in water and acetonitrile, Table 17, compounds of formula (10).
The mark [7] stands for this setting: method [a], Table 19, compounds of formula (12), two values joined by & in some cells.

Read-outs that look alike come from different tables or passages of the source.

Where the note is “reversed phase HPLC column, method [a]: LC-UV, acidic range, 0.1% formic acid in water and acetonitrile, Table 5, compounds of formula (2)”, `Cc1ccc(OCC(N)CON2C(=O)c3ccccc3C2=O)c(C)c1` (racemic) [2-12, 2-[rac-2-amino-3-(2,4-dimethylphenoxy)propoxy]isoindoline-1,3-dione 2,2,2-trifluoroacetate] gave a chromatographic logP of 1.7. In the case of `Cc1ccc(OCC(CON2C(=O)c3ccccc3C2=O)NC(=O)OC(C)(C)C)c(C)c1` (racemic) [2-13, tert-butyl N-[rac-1-[(2,4-dimethylphenoxy)methyl]-2-(1,3-dioxoisoindolin-2-yl)oxy-ethyl]carbamate], the chromatographic logP (method [a]: LC-UV, acidic range, 0.1% formic acid in water and acetonitrile, Table 5, compounds of formula (2)) is 4.51. `Cc1ccc(CC(CON2C(=O)c3ccccc3C2=O)NC(=O)c2cc(Cl)nnc2Oc2cccc(C(F)(F)F)c2)c(C)c1` (racemic) [3-16, 6-chloro-N-[rac-1-[(2,4-dimethylphenyl)methyl]-2-(1,3-dioxoisoindolin-2-yl)oxy-ethyl]-3-[3-(trifluoromethyl)phenoxy]pyridazine-4-carboxamide] gave a chromatographic logP under setting [1] of 5.

Under setting [1], `Cc1ccc(OCC(CON2C(=O)c3ccccc3C2=O)NC(=O)c2cc(C)nnc2Oc2cccc(C(F)(F)F)c2)c(C)c1` (racemic) [3-33, 6-methyl-N-[rac-1-[(2,4-dimethylphenoxy)methyl]-2-(1,3-dioxoisoindolin-2-yl)oxy-ethyl]-3-[3-(trifluoromethyl)phenoxy]pyridazine-4-carboxamide] returned a chromatographic logP of 4.56. On to `Cc1ccc(CC(CON)NC(=O)c2cc(Cl)nnc2Oc2cccc(C(F)(F)F)c2)c(C)c1` (racemic) [4-17, 6-chloro-N-[rac-1-(aminooxymethyl)-2-(2,4-dimethylphenyl)ethyl]-3-[3-(trifluoro-methyl)phenoxy]pyridazine-4-carboxamide], for which, under setting [2], the chromatographic logP turned out to be 3.37. `Cc1ccc(OCC(CON)NC(=O)c2cc(C)nnc2Oc2cccc(C(F)(F)F)c2)c(C)c1` (racemic) [4-33, 6-methyl-N-[rac-1-(aminooxymethyl)-2-(2,4-dimethylphenoxy)ethyl]-3-[3-(trifluoromethyl)phenoxy]pyridazine-4-carboxamide]: the chromatographic logP under setting [2] stood at 3.13. `Cc1ccc(CC(CON2C(=O)c3ccccc3C2=O)NC(=O)c2cc(Cl)nnc2Cl)c(C)c1` (racemic) [6-01, 3,6-dichloro-N-[rac-1-[(2,4-dimethylphenyl)methyl]-2-(1,3-dioxoisoindolin-2-yl)oxy-ethyl]pyridazine-4-carboxamide] came in with a chromatographic logP under setting [3] of 3.72. On the same count and under the same terms, then `Cc1ccc(CC(CON)NC(=O)c2cc(Cl)nnc2Cl)c(C)c1` (racemic) [6-02, 3,6-dichloro-N-[rac-1-(aminooxymethyl)-2-(2,4-dimethylphenyl)ethyl]pyridazine-4-carboxamide], with 1.93. Consider `Cc1ccc(CC2CON=C(c3cc(Cl)nnc3Cl)N2)c(C)c1` (racemic) [7-01, rac-3-(3,6-dichloropyridazin-4-yl)-5-[(2,4-dimethylphenyl)methyl]-5,6-dihydro-4H-1,2,4-oxadiazine], for which the chromatographic logP (method [a]: LC-UV, acidic range, 0.1% formic acid in water and acetonitrile, Table 13, compounds of formula (7)) was determined as 2.98. As to `Cc1cc(C2=NOCC(O)N2)c(Oc2cccc(C(F)(F)F)c2)nn1` (racemic) [14-01, rac-3-[6-methyl-3-[3-(trifluoromethyl)phenoxy]pyridazin-4-yl]-5,6-dihydro-4H-1,2,4-oxadiazin-5-ol], the chromatographic logP (method [a]: LC-UV, acidic range, 0.1% formic acid in water and acetonitrile, Table 23, compounds of formula (14)) amounted to 1.59. Under setting [4], `Cc1c(Cl)nnc(Oc2cccc(C3CC3)c2F)c1C(=O)O` [1-02, 6-chloro-3-(3-cyclopropyl-2-fluoro-phenoxy)-5-methyl-pyridazine-4-carboxylic acid] returned a chromatographic logP of 1.84.

As for `CON(C)C(=O)c1cc(C)nnc1Oc1cccc(C(F)(F)F)c1` [1-03], under setting [4], the LogP was 2.33^[a].

Turning to `CON(C)C(=O)c1cc(Cl)nnc1Oc1cccc(C(F)(F)F)c1` [1-07, 6-chloro-N-methoxy-N-methyl-3-[3-(trifluoromethyl)phenoxy]pyridazine-4-carboxamide], the chromatographic logP (reversed phase HPLC column, method [a]: LC-UV, acidic range, 0.1% formic acid in water and acetonitrile, Table 3, compounds of formula (1)) came to 2.9. Under setting [5], `Cc1cc(C#N)c(Oc2cccc(C(F)(F)F)c2)nn1` [9-02, 6-methyl-3-[3-(trifluoromethyl)phenoxy]pyridazine-4-carbonitrile] had a chromatographic logP of 2.84. `N#Cc1cc(Cl)nnc1Oc1cccc(C(F)(F)F)c1` [9-03, 6-chloro-3-[3-(trifluoromethyl)phenoxy]pyridazine-4-carbonitrile] yielded a chromatographic logP under setting [5] of 3.25.

As to `COc1cccc(Oc2nnc(Cl)cc2C#N)c1` [9-08], under setting [5], the LogP was 2.75^[a]. Consider `Cc1cc(C(N)=NO)c(Oc2cccc(C(F)(F)F)c2)nn1` [10-02, N′-hydroxy-6-methyl-3-[3-(trifluoromethyl)phenoxy]pyridazine-4-carboxamidine], for which the chromatographic logP under setting [6] worked out at 1.69. For `NC(=NO)c1cc(Cl)nnc1Oc1cccc(Cl)c1` [10-04], the LogP under setting [6] was 2.00^[a].

Regarding `NC(=NO)c1cc(Cl)nnc1Oc1cccc(Br)c1F` [10-05], under setting [6], the LogP is 2.21^[a]. `NC(=NO)c1cc(Cl)nnc1Oc1cccc(C2CC2)c1F` [10-07]: the LogP under setting [6] is 2.34^[a]. The same measure, in the same setting: the value for `NC(=NO)c1cc(Cl)nnc1Oc1cccc(C2CC2)c1` [10-08] was 2.19^[a]; that for `NC(=NO)c1cc(Cl)nnc1Oc1cccc(C(F)F)c1F` [10-09] was 1.91^[a]. `Cc1cc(C(N)=NOCC(=O)c2ccc(Cl)cc2)c(Oc2cccc(C(F)(F)F)c2)nn1` [12-03, N′-[2-(4-chlorophenyl)-2-oxo-ethoxy]-6-methyl-3-[3-(trifluoro-methyl)phenoxy]pyridazine-4-carboxamidine]: the chromatographic logP under setting [7] worked out at 3.42. `COc1ccc(C(=O)C(F)(F)ON=C(N)c2cc(C)nnc2Oc2cccc(C(F)(F)F)c2)cc1` [12-14, N′-[1,1-difluoro-2-(4-methoxyphenyl)-2-oxo-ethoxy]-6-methyl-3-[3-(trifluoro-methyl)phenoxy]pyridazine-4-carboxamidine] returned a chromatographic logP under setting [7] of 3.13. With `C=CCON=C(N)c1cc(C)nnc1Oc1cccc(C(F)(F)F)c1` [13-01, N′-allyloxy-6-methyl-3-[3-(trifluoromethyl)phenoxy]pyridazine-4-carboxamidine], where the note is “method [a]: LC-UV, acidic range, 0.1% formic acid in water and acetonitrile, Table 21, compounds of formula (13)”, the chromatographic logP was 2.88. Consider `O=Cc1cc(Cl)nnc1Oc1cccc(C(F)(F)F)c1` [16-01, 6-chloro-3-[3-(trifluoromethyl)phenoxy]pyridazine-4-carbaldehyde], for which the chromatographic logP (method [a]: LC-UV, acidic range, 0.1% formic acid in water and acetonitrile, Table 25, compound of formula (16)) was determined as 2.04. For the compound `O/N=C/c1cc(Cl)nnc1Oc1cccc(C(F)(F)F)c1` [17-01, 6-chloro-3-[3-(trifluoromethyl)phenoxy]pyridazine-4-carbaldehyde oxime], the chromatographic logP (reversed phase HPLC column, method [a]: LC-UV, acidic range, 0.1% formic acid in water and acetonitrile, Table 27, compound of formula (17)) was 2.88. Consider `Cc1ccc(CC(CCl)NC(=NO)c2cc(Cl)nnc2Oc2cccc(C(F)(F)F)c2)c(C)c1` (centres unmarked) [20-01, 6-chloro-N-[1-(chloromethyl)-2-(2,4-dimethylphenyl)ethyl]-N′-hydroxy-3-[3-(trifluoromethyl)phenoxy]pyridazine-4-carboxamidine], for which the chromatographic logP (method [a], Table 29, compounds of formula (20), read-out: Log P) was found to be 4.34. In the case of `Cc1ccc(CC(CCl)NC(=O)c2cc(Cl)nnc2Oc2cccc(C(F)(F)F)c2)c(C)c1` (centres unmarked) [21-01, 6-chloro-N-[1-(chloromethyl)-2-(2,4-dimethylphenyl)ethyl]-3-[3-(trifluoro-methyl)phenoxy]pyridazine-4-carboxamide], the chromatographic logP (method [a], Table 33, compounds of formula (21)) turned out to be 5.
